Measured values: patent publication US10189788B2, “Substituted N,2-diarylquinoline-4-carboxamides and the use thereof as anti-inflammatory agents” (BAYER PHARMA AKTIENGESELLSCHAFT, priority 2014, dated 2019)

Biological target: Human FP Receptor (Homo sapiens (Human), UniProt P43088)
Assay: In vitro test of inhibition of human FP receptor activity, variant B-1A (PGF2α-induced calcium flux in FP-expressing CHEM1 cells)
Type: cell-based
Conditions: calcium flux induced by 3 nM PGF2α, Fluo-8, some mean values from multiple determinations
Description: • BSA bovine serum albumin • CRTH2 chemoattractant receptor-homologous molecule expressed on T helper type 2 cells • DMEM Dulbecco's modified Eagle's medium • DMSO dimethyl sulfoxide • DP PGD2 receptor • EC50 half-maximum effective concentration • em. emission • EP PGE2 receptor • ex. excitation • FCS fetal calf serum • FP PGF2α receptor • HEPES 2-[4-(2-hydroxyethyl)piperazin-1-yl]ethanesulfonic acid • IC50 half-maximum inhibitory concentration • IP PGI2 receptor • MES 2-(N-morpholino)ethanesulfonic acid • Pen/Strep penicillin/streptomycin • PGD2 prostaglandin D2 • PGE2 prostaglandin E2 • PGF2α prostaglandin F2α • PGI2 prostaglandin […] • TC tissue culture • TP thromboxane A2 receptor • Tris tris(hydroxymethyl)aminomethane • v/v volume to volume ratio (of a solution) • w/w weight to weight ratio (of a solution) B-1.

Sequence of Human FP Receptor (P43088 whole entry): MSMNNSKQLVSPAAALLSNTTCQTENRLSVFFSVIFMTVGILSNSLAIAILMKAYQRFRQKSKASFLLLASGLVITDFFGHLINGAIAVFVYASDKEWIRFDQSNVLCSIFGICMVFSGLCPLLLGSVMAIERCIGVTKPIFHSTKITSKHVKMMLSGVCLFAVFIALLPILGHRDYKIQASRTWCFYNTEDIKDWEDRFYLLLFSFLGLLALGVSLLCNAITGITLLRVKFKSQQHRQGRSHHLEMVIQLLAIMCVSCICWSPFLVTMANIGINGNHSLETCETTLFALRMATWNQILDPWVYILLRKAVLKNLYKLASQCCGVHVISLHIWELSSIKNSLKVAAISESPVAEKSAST

Going from O=C(O)c1ccc(NC(=O)c2c(CF)c(-c3ccccc3)nc3ccc(Br)cc23)c(F)c1 [Example 37, 4-({[6-Bromo-3-(fluoromethyl)-2-phenylquinolin-4-yl]carbonyl}amino)-3-fluorobenzoic acid] to CCCc1c(-c2ccccc2)nc2ccc(Br)cc2c1C(=O)Nc1ccc(C(=O)O)cc1F [Example 40, 4-{[(6-Bromo-2-phenyl-3-propylquinolin-4-yl)carbonyl]amino}-3-fluorobenzoic acid], the IC50 rises from 39 nM to 560 nM (14-fold).

Compared with CNC(=O)c1ccc(NC(=O)c2c(C)c(-c3ccccc3)nc3ccc(Br)cc23)c(F)c1 [Example 56, 6-Bromo-N-[2-fluoro-4-(methylcarbamoyl)phenyl]-3-methyl-2-phenylquinoline-4-carboxamide], Cc1c(-c2ccccc2)nc2ccc(Br)cc2c1C(=O)Nc1ccc(C(N)=O)cc1F [Example 48, 6-Bromo-N-(4-carbamoyl-2-fluorophenyl)-3-methyl-2-phenylquinoline-4-carboxamide] is 2.8-fold lower in IC50: 285 nM for the first, 102 nM for the second. The second is the more potent here.

Going from Cc1c(-c2ccccc2)nc2ccc(Br)cc2c1C(=O)Nc1ccc(C(=O)O)cc1N [Example 18, 3-Amino-4-{[(6-bromo-3-methyl-2-phenylquinolin-4-yl)carbonyl]amino}benzoic acid] to Cc1c(-c2ccccc2)nc2ccc(Br)cc2c1C(=O)Nc1ccc(C(=O)O)cc1Cl [Example 9, 4-{[(6-Bromo-3-methyl-2-phenylquinolin-4-yl)carbonyl]amino}-3-chlorobenzoic acid], the IC50 falls from 335 nM to 65 nM (5.2-fold). The second is the more potent here.

First: Cc1c(-c2ccccc2)nc2ccc(OC(F)(F)F)cc2c1C(=O)Nc1ccc(C(=O)O)cc1F [Example 35, 3-Fluoro-4-({[3-methyl-2-phenyl-6-(trifluoromethoxy)quinolin-4-yl]carbonyl}amino)benzoic acid]
Second: Cc1c(-c2ccccc2)nc2ccc(C(F)(F)F)cc2c1C(=O)Nc1ccc(C(=O)O)cc1F [Example 34, 3-Fluoro-4-({[3-methyl-2-phenyl-6-(trifluoromethyl)quinolin-4-yl]carbonyl}amino)benzoic acid]
The IC50 of the first is 3.1-fold higher: 290 nM for the first, 93 nM for the second.

Compared with Cc1c(-c2ccccc2F)nc2ccc(Br)cc2c1C(=O)Nc1ccc(C(=O)O)cc1F [Example 45, 4-({[6-Bromo-2-(2-fluorophenyl)-3-methylquinolin-4-yl]carbonyl}amino)-3-fluorobenzoic acid], Cc1c(-c2ccccc2)nc2ccc(F)cc2c1C(=O)Nc1ccc(C(=O)O)cc1F [Example 29, 3-Fluoro-4-{[(6-fluoro-3-methyl-2-phenylquinolin-4-yl)carbonyl]amino}benzoic acid] is 4.3-fold higher in IC50: 205 nM for the first, 890 nM for the second.

Going from CC(=O)Nc1cc(C(=O)O)ccc1NC(=O)c1c(C)c(-c2ccccc2)nc2ccc(Br)cc12 [Example 19, 3-Acetamido-4-{[(6-bromo-3-methyl-2-phenylquinolin-4-yl)carbonyl]amino}benzoic acid] to COc1cc(C(=O)O)ccc1NC(=O)c1c(C)c(-c2ccccc2)nc2ccc(Br)cc12 [Example 21, 4-{[(6-Bromo-3-methyl-2-phenylquinolin-4-yl)carbonyl]amino}-3-methoxybenzoic acid], the IC50 falls from 650 nM to 204 nM (3.2-fold).

Cc1c(-c2ccccc2)nc2ccc(Br)cc2c1C(=O)Nc1ccc(C(N)=O)cc1 [Example 47, 6-Bromo-N-(4-carbamoylphenyl)-3-methyl-2-phenylquinoline-4-carboxamide] and Cc1c(-c2ccccc2)nc2ccc(Br)cc2c1C(=O)Nc1ccc(C(=O)O)cc1 [Example 1, 4-{[(6-Bromo-3-methyl-2-phenylquinolin-4-yl)carbonyl]amino}benzoic acid] are within 1.5-fold of each other in IC50: 197 nM for the first, 166 nM for the second.

First: COc1c(-c2ccccc2)nc2ccc(Br)cc2c1C(=O)Nc1ccc(C(=O)O)cc1F [Example 74, 4-{[(6-Bromo-3-methoxy-2-phenylquinolin-4-yl)carbonyl]amino}-3-fluorobenzoic acid]
Second: O=C(O)c1ccc(NC(=O)c2c(Cl)c(-c3ccccc3)nc3ccc(Br)cc23)c(F)c1 [Example 76, 4-{[(6-Bromo-3-chloro-2-phenylquinolin-4-yl)carbonyl]amino}-3-fluorobenzoic acid]
The IC50 of the first is 13-fold higher: 220 nM for the first, 17 nM for the second. The second is the more potent here.

Cc1c(-c2ccccc2)nc2ccc(Br)cc2c1C(=O)Nc1ccc(C(=O)O)cc1C(F)(F)F [Example 15, 4-{[(6-Bromo-3-methyl-2-phenylquinolin-4-yl)carbonyl]amino}-3-(trifluoromethyl)benzoic acid] and Cc1c(-c2ccccc2)nc2ccc(Br)cc2c1C(=O)Nc1ccc(C(=O)O)cc1S(=O)(=O)C(F)(F)F [Example 53, 4-{[(6-Bromo-3-methyl-2-phenylquinolin-4-yl)carbonyl]amino}-3-[(trifluoromethyl)sulfonyl]benzoic acid] are within 1.5-fold of each other in IC50: 45 nM for the first, 31 nM for the second.

O=C(O)c1ccc(NC(=O)c2c(C(F)F)c(-c3ccccc3)nc3ccc(Br)cc23)c(F)c1 [Example 38, 4-({[6-Bromo-3-(difluoromethyl)-2-phenylquinolin-4-yl]carbonyl}amino)-3-fluorobenzoic acid] and Cc1c(-c2ccccc2)nc2ccc(C(F)F)cc2c1C(=O)Nc1ccc(C(=O)O)cc1F [Example 64, 4-({[6-(Difluoromethyl)-3-methyl-2-phenylquinolin-4-yl]carbonyl}amino)-3-fluorobenzoic acid] are within 1.5-fold of each other in IC50: 265 nM for the first, 362 nM for the second.

Going from Cc1ccc2nc(-c3ccccc3)c(C)c(C(=O)Nc3ccc(C(=O)O)cc3F)c2c1 [Example 31, 4-{[(3,6-Dimethyl-2-phenylquinolin-4-yl)carbonyl]amino}-3-fluorobenzoic acid] to Cc1c(-c2ccccc2)nc2ccc(I)cc2c1C(=O)Nc1ccc(C(=O)O)cc1F [Example 30, 3-Fluoro-4-{[(6-iodo-3-methyl-2-phenylquinolin-4-yl)carbonyl]amino}benzoic acid], the IC50 falls from 165 nM to 6 nM (28-fold). The second is the more potent here.

Compared with Cc1c(-c2ccccc2)nc2ccc(Br)cc2c1C(=O)Nc1ncc(C(=O)O)cc1F [Example 6, 6-{[(6-Bromo-3-methyl-2-phenylquinolin-4-yl)carbonyl]amino}-5-fluoronicotinic acid], Cc1c(-c2ccccc2)nc2ccc(Br)cc2c1C(=O)Nc1ccc(C(=O)O)c(F)c1 [Example 8, 4-{[(6-Bromo-3-methyl-2-phenylquinolin-4-yl)carbonyl]amino}-2-fluorobenzoic acid] is 10-fold higher in IC50: 79 nM for the first, 795 nM for the second. The first is the more potent here.

Cc1c(C(=O)Nc2ccc(C(=O)O)cc2SC(F)(F)F)c2cc(Br)ccc2[n+]([O-])c1-c1ccccc1 [Example 54, 4-{[(6-Bromo-3-methyl-1-oxido-2-phenylquinolin-4-yl)carbonyl]amino}-3-[(trifluoromethyl)sulfanyl]benzoic acid] and Cc1c(C(=O)Nc2ccc(C(=O)O)cc2F)c2cc(Br)ccc2[n+]([O-])c1-c1ccccc1 [Example 49, 4-{[(6-Bromo-3-methyl-1-oxido-2-phenylquinolin-4-yl)carbonyl]amino}-3-fluorobenzoic acid] are within 1.5-fold of each other in IC50: 102 nM for the first, 120 nM for the second.

Cc1c(-c2ccccc2)nc2ccc(Br)c(Cl)c2c1C(=O)Nc1ccc(C(=O)O)cc1F [Example 55, 4-{[(6-Bromo-5-chloro-3-methyl-2-phenylquinolin-4-yl)carbonyl]amino}-3-fluorobenzoic acid] and Cc1c(-c2ccccc2)nc2cc(Cl)c(Cl)cc2c1C(=O)Nc1ccc(C(=O)O)cc1F [Example 42, 4-{[(6,7-Dichloro-3-methyl-2-phenylquinolin-4-yl)carbonyl]amino}-3-fluorobenzoic acid] are within 1.5-fold of each other in IC50: 49 nM for the first, 33 nM for the second.

First: O=C(O)c1ccc(NC(=O)c2c(C3CC3)c(-c3ccccc3)nc3ccc(Br)cc23)c(F)c1 [Example 77, 4-{[(6-Bromo-3-cyclopropyl-2-phenylquinolin-4-yl)carbonyl]amino}-3-fluorobenzoic acid]
Second: CSc1cc(C(=O)O)ccc1NC(=O)c1c(C)c(-c2ccccc2)nc2ccc(Br)cc12 [Example 24, 4-{[(6-Bromo-3-methyl-2-phenylquinolin-4-yl)carbonyl]amino}-3-(methylsulfanyl)benzoic acid]
The IC50 of the first is 4.6-fold lower: 27 nM for the first, 124 nM for the second. The first is the more potent here.

Going from Cc1c(-c2ccccc2)nc2ccc(Br)cc2c1C(=O)Nc1ccc(C(=O)O)cc1[S+](C)[O-] (stereo not drawn) [Example 25, 4-{[(6-Bromo-3-methyl-2-phenylquinolin-4-yl)carbonyl]amino}-3-(methylsulfinyl)benzoic acid] to COCS(=O)(=O)c1cc(C(=O)O)ccc1NC(=O)c1c(C)c(-c2ccccc2)nc2ccc(Br)cc12 [Example 60, 4-{[(6-Bromo-3-methyl-2-phenylquinolin-4-yl)carbonyl]amino}-3-[(methoxymethyl)sulfonyl]benzoic acid], the IC50 falls from 720 nM to 27 nM (27-fold).

Compared with Cc1c(-c2ccccc2)nc2ccc(C(C)C)cc2c1C(=O)Nc1ccc(C(=O)O)cc1F [Example 33, 3-Fluoro-4-{[(6-isopropyl-3-methyl-2-phenylquinolin-4-yl)carbonyl]amino}benzoic acid], Cc1c(-c2ccccc2)nc2c(C)cc(Br)cc2c1C(=O)Nc1ccc(C(=O)O)cc1F [Example 78, 4-{[(6-Bromo-3,8-dimethyl-2-phenylquinolin-4-yl)carbonyl]amino}-3-fluorobenzoic acid] is 1.8-fold lower in IC50: 272 nM for the first, 154 nM for the second. The second is the more potent here.

Going from O=C(O)c1cc(F)c(NC(=O)c2c(C(F)(F)F)c(-c3ccccc3)nc3ccc(Br)cc23)c(Br)c1 [Example 62, 3-Bromo-4-({[6-bromo-2-phenyl-3-(trifluoromethyl)quinolin-4-yl]carbonyl}amino)-5-fluorobenzoic acid] to Cc1c(-c2ccccc2)nc2ccc(Br)cc2c1C(=O)Nc1c(Cl)cc(C(=O)O)cc1Cl [Example 13, 4-{[(6-Bromo-3-methyl-2-phenylquinolin-4-yl)carbonyl]amino}-3,5-dichlorobenzoic acid], the IC50 falls from 301 nM to 150 nM (2-fold). The second is the more potent here.
